As usually defined, the Ki is a measure of affinity in units of concentration, obtained from inhibition or displacement. Read a low Ki as a stronger hold on the target. As a reminder, the ED50 is the dose at which the effect has come halfway, by size or by number of responders. Read a low ED50 as an effect at a small dose.

One experiment concerns the target D(2) dopamine receptor (Rattus norvegicus, UniProt P61169). Description: Displacement of [3H]-Spiperone from Dopamine receptor D2 in rat striatum.
Experiment [1] concerns Rattus norvegicus. The experiment is described as follows: Suppression of conditioned avoidance behavior in rats following p.o. administration. It counts as functional. Particulars: po.
Experiment [2] concerns Rattus norvegicus. The experiment is described as follows: Suppression of conditioned avoidance behavior in rats after ip administration. It counts as functional.
Experiment [3] deals with Rattus norvegicus. The experiment is described as follows: Induction of catalepsy in rats when administered intraperitoneally 4 hr prior to measurement to groups of nine animals. It counts as functional. The note with it: ip.
A short description of experiment [4]: Activity calculated as Na+ ratio [IC50 (+Na+) / IC50 (-Na+)]. The class given is functional.
Experiment [5] has as its target Serotonin 2 (5-HT2) receptor (Rattus norvegicus, UniProt P30994+P08909+P14842). The experiment is described as follows: Potency to displace [3H]- Spiperone from 5-hydroxytryptamine 2 receptor […].
Experiment [6] concerns the target T1, Adrenergic receptor alpha-1 (Rattus norvegicus, UniProt P15823+P23944+P43140).
T1 sequence (P15823 whole entry): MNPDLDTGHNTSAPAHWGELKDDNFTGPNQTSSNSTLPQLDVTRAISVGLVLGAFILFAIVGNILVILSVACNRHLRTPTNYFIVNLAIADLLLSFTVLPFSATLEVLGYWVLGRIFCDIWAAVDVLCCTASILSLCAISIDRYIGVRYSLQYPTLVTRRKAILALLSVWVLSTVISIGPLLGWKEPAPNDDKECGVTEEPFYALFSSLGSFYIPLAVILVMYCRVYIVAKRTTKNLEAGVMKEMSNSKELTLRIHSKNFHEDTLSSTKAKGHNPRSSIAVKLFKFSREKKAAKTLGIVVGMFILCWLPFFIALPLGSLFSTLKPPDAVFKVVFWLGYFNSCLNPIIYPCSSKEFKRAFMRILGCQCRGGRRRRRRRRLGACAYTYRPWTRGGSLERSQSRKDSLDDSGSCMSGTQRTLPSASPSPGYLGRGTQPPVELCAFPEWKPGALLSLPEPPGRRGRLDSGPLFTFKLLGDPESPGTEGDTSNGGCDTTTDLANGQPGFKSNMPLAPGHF
T1 sequence (P23944 whole entry): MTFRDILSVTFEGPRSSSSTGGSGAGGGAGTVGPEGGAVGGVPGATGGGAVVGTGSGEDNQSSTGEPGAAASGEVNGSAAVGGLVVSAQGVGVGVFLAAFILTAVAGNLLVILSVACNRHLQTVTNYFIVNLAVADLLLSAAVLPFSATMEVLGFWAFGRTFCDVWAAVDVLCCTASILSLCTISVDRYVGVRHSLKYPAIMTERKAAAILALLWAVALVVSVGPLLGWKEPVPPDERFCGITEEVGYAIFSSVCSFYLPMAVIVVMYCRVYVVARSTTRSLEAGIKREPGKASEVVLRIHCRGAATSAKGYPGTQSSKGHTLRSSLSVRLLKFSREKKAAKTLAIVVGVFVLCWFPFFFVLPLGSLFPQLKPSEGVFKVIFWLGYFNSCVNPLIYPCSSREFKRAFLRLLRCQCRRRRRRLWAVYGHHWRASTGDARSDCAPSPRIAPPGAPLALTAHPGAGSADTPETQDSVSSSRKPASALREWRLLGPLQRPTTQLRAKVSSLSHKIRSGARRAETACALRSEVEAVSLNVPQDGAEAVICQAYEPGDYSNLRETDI
T1 sequence (P43140 whole entry): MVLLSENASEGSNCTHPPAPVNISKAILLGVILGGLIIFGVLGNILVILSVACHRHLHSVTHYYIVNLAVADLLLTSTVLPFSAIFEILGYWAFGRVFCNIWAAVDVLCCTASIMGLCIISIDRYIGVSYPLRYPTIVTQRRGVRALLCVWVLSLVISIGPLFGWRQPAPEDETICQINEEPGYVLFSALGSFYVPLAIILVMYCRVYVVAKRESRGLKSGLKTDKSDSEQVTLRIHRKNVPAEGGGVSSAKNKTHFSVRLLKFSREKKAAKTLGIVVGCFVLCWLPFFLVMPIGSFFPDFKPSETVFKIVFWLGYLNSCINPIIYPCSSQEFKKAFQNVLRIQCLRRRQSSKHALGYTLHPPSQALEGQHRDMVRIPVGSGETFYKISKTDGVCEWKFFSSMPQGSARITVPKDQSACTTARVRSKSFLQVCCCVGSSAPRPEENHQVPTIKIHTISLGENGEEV
The experiment is described as follows: Potency to displace [3H]- WB-4101 from alpha-1 adrenergic receptor in rat striatum.

A further experiment relates to Mus musculus. Description: Antagonism of apomorphine-induced climbing behavior in mice after ip administration. It counts as functional.

D(2) dopamine receptor, sequence (P61169 whole entry): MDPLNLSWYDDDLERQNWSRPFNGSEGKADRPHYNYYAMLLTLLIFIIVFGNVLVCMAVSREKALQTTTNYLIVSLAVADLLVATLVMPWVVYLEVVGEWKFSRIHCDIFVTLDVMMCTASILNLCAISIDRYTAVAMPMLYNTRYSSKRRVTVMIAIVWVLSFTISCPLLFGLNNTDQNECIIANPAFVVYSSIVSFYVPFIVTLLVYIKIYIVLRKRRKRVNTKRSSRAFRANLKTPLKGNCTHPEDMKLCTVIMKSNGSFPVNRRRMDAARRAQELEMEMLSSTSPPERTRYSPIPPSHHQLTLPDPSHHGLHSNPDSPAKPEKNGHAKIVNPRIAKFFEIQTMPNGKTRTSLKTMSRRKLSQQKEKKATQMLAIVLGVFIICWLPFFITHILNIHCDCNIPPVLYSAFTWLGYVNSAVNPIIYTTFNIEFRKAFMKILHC

Take `COc1ccccc1N1CCN(Cc2ccc(-c3cccc(Cl)c3)[nH]2)CC1`: the Ki at D(2) dopamine receptor was 4.4 nM. The same compound registered an ED50 with Rattus norvegicus [1] greater than 100 mg/kg.
As for `COc1ccccc1N1CCN(Cc2ccc(-c3ccc(F)cc3)n2C)CC1`, the Ki on D(2) dopamine receptor came to 20 nM.
On to `COc1ccccc1N1CCN(Cc2ccc(-c3ccc(F)cc3)n2CCO)CC1`, for which the Ki at D(2) dopamine receptor turned out to be 52 nM. This compound also showed an ED50 in the experiment on Rattus norvegicus [1] greater than 100 mg/kg.
For `COc1ccccc1N1CCN(Cc2ccc(-c3ccc(C(C)C)cc3)[nH]2)CC1`, the Ki on D(2) dopamine receptor is 59 nM. The same compound registered an ED50 with Rattus norvegicus [2] greater than 100 mg/kg.
For the compound `COc1ccccc1N1CCN(Cc2ccc(-c3ccc(F)cc3)[nH]2)CC1`, the Ki on D(2) dopamine receptor came out at 0.96 nM. Further, in the experiment with Rattus norvegicus [3], the ED50 is greater than 23 mg/kg. Also, the Na+ ratio in experiment [4] is 2.3.
In the case of `Fc1ccc(-c2ccc(CN3CCN(c4cccc5ccoc45)CC3)[nH]2)cc1` [ELOPIPRAZOLE], the inhibition constant (Ki) in experiment [5] was determined as 120 nM; in experiment [6], 220 nM; at D(2) dopamine receptor, 0.45 nM. The ED50 was 2.3 mg/kg in the experiment with Mus musculus, 2.5 mg/kg in the experiment with Rattus norvegicus [1], greater than 54 mg/kg in the experiment with Rattus norvegicus [3] and 5.4 mg/kg in the experiment on Rattus norvegicus [2]. Further, the Na+ ratio in experiment [4] is 2.
Regarding `O=C(NCCN1CCN(c2cccc3ccoc23)CC1)c1ccc(F)cc1`, the figures for the Ki (in experiment [5]; in experiment [6]; at D(2) dopamine receptor) were 29 nM, 9.7 nM and 7.1 nM, respectively. Further, the median effective dose (ED50) in the experiment with Mus musculus is 1.8 mg/kg; in the experiment with Rattus norvegicus [1], 21 mg/kg; with Rattus norvegicus [3], greater than 30 mg/kg; with Rattus norvegicus [2] it was 2.7 mg/kg. The Na+ ratio in experiment [4] is 2.5.
In the case of `Fc1ccc(-c2ccc(CN3CCN(c4ccc(F)cc4)CC3)[nH]2)cc1`, the affinity on D(2) dopamine receptor corresponds to a Ki of 16 nM. This compound also gave an ED50 with Rattus norvegicus [1] of 40 mg/kg.
`COc1ccccc1N1CCN(Cc2ccc(-c3c(F)cccc3F)[nH]2)CC1` displayed an inhibition constant Ki on D(2) dopamine receptor of 1.1 nM. In the experiment on Rattus norvegicus [1], it took a dose of 30 mg/kg to reach the 50% effect level (ED50).
For `O=C(c1ccc(F)cc1)N1CCN(Cc2ccc(-c3ccc(F)cc3)[nH]2)CC1`, in that order: 120 nM and 34 mg/kg.
For `Fc1ccc(-c2ccc(CN3CCN(c4cccc(C(F)(F)F)c4)CC3)[nH]2)cc1`, in that order: 19 nM and 21 mg/kg.
For the compound `COc1ccccc1C1CCN(Cc2ccc(-c3ccccc3)[nH]2)CC1`, the Ki on D(2) dopamine receptor stood at 1 nM. Also, the values for the ED50 in the experiment with Mus musculus and in the experiment on Rattus norvegicus [1] were 1.7 mg/kg and 100 mg/kg, respectively.
On to `O=C(CCCN1CCN(c2cccc3ccoc23)CC1)c1ccc(F)cc1`, for which the Ki was determined as 8.2 nM in experiment [5], 1.5 nM in experiment [6] and 5.1 nM at D(2) dopamine receptor. The ED50 with Mus musculus is 5 mg/kg; with Rattus norvegicus [1] it was 7.6 mg/kg; with Rattus norvegicus [2], 5.6 mg/kg. Besides, the Na+ ratio in experiment [4] is 1.4.
`COc1ccccc1N1CCN(Cc2ccc(-c3ccccc3)[nH]2)CC1` showed a Ki at D(2) dopamine receptor of 0.76 nM. In addition, the ED50 in the experiment with Mus musculus turned out to be 0.4 mg/kg; in the experiment with Rattus norvegicus [1], 13 mg/kg; in the experiment on Rattus norvegicus [2] it was 1.9 mg/kg.
Consider `O=C(c1ccc(F)cc1)C1CCN(Cc2ccc(-c3ccc(F)cc3)[nH]2)CC1`, for which, at D(2) dopamine receptor, affinity was put at a Ki of 12 nM. In addition, the 50% effect level with Rattus norvegicus [1] (ED50) was put at a dose of 34 mg/kg.
Taken in the same sequence, the figures for `COc1ccccc1N1CCN(Cc2ccc(-c3ccc(C(F)(F)F)cc3)[nH]2)CC1` were 25 nM and 45 mg/kg.
Take `c1ccc(-c2ccc(CN3CCN(c4cccc5c4OCCCO5)CC3)[nH]2)cc1`: on D(2) dopamine receptor, the Ki was found to be 0.68 nM. For the same compound, the results for the ED50 in the experiment on Mus musculus and in the experiment on Rattus norvegicus [1] were 0.2 mg/kg and 12 mg/kg, respectively.
With `COc1ccccc1N1CCN(CCNC(=O)c2ccc(F)cc2)CC1`, the ED50 with Rattus norvegicus [2] is 0.7 mg/kg.
In the case of `COc1ccccc1N1CCN(Cc2ccc(-c3ccccc3)n2-c2ccccc2)CC1`, the Ki on D(2) dopamine receptor came to 160 nM. The same compound gave an ED50 in the experiment with Rattus norvegicus [1] greater than 100 mg/kg.
As to `CCS(=O)(=O)c1ccc(OC)c(-c2ccc(CN3CCN(c4ccccc4OC)CC3)[nH]2)c1`, the Ki at D(2) dopamine receptor came to 7 nM.
For `COc1ccccc1N1CCN(CCCC(=O)c2ccc(F)cc2)CC1` [FLUANISONE], the affinity at D(2) dopamine receptor corresponds to a Ki of 2.4 nM. The Na+ ratio in experiment [4] is 1.4.
As for `COc1ccccc1-c1ccc(CN2CCN(c3ccccc3OC)CC2)[nH]1`, the Ki at D(2) dopamine receptor was found to be 6.5 nM. For the same compound, the ED50 with Rattus norvegicus [2] was greater than 100 mg/kg.
Taken in the same sequence, the figures for `OCCN1CCN(Cc2ccc(-c3ccc(F)cc3)[nH]2)CC1` were 31000 nM and greater than 100 mg/kg.
Taken in the same sequence, the figures for `CCCn1c(CN2CCN(c3ccccc3OC)CC2)ccc1-c1ccc(F)cc1` were 110 nM and greater than 50 mg/kg.
`Fc1ccc(-c2ccc(CN3CCC(c4ccccc4)CC3)[nH]2)cc1` returned a Ki at D(2) dopamine receptor of 11 nM. In the experiment with Rattus norvegicus [2], this compound yielded an ED50 greater than 100 mg/kg.

The values are drawn from ChEMBL document CHEMBL1123975, “2-Phenylpyrroles as conformationally restricted benzamide analogues. A new class of potential antipsychotics. 2” (J Med Chem, 1988).
